Values of other authors as cited in patent US10792281B2 (priority 2014, dated 2020).
Where two headings read alike, the source gives them in different places.

What was measured:
[1] = system: nuclear factor kappa-B (NF-kB) and activator protein-1 (AP-1) activity
[2] = not given; remark: listed apart in the source
[3] = human, in vivo
[4] = in vivo

For `CN(C)CCOC(c1ccccc1)c1ccccc1` [Diphenhydramine, diphenhydramine], the “effect on AP-1 and NF-kB activity / RANTES production” value [1] is listed as “ineffective”.

For `Clc1ccc2c(c1)CCc1cccnc1C2=C1CCNCC1` [Desloratadine, desloratadine], the half-life (in vivo) is listed as 27 h and the half-life (slow metabolizers) is listed as over 50 h.

In the case of `O=C(O)COCCN1CCN([C@H](c2ccccc2)c2ccc(Cl)cc2)CC1` [levocetirizine], the “HRV-induced ICAM-1, cytokine expression, and viral replication” value (human rhinovirus (HRV); airway epithelial cells from both the nose and lung) is given as “inhibit”, the “decrease of viral titers” value (human rhinovirus (HRV); in vitro, e.g. rhinovirus) is given as 2 log and the peak concentration ([2]; repeated 5 mg once daily oral dose) is given as 308 ng/mL. The peak concentration ([2]; single 5 mg oral dose) was 270 ng/mL and the “doses that can be safely administered” value [3] was “up to 30 mg/day”.

In the case of `CC(C)(O)c1ccccc1CC[C@@H](SCC1(CC(=O)O)CC1)c1cccc(/C=C/c2ccc3ccc(Cl)cc3n2)c1` [montelukast], the “time to peak plasma concentration” value [4] is listed as 3 to 4 h, the “effect of food on oral bioavailability and Cmax” value ([4]; po) is listed as “not affected by a standard meal” and the AUC range ([4]; po, 10 mg) is listed as 1521 to 4595 ng/h/mL. The “mean AUC” value ([4]; po, 10 mg) was 2689 ng/h/mL, the “doses without clinically relevant side effects” value [3] was “up to 200 mg/day” and the drug interactions ([3]; po) was “no drug interactions”.

For `CN(c1nccc(=O)[nH]1)C1CCN(c2nc3ccccc3n2Cc2ccc(F)cc2)CC1` [mizolastine], the bioavailability (in vivo) is listed as “high”.
